Test results from US20250145609A1, “3-SUBSTITUTED PYRIDAZINE COMPOUNDS AS SMARCA2 AND/OR SMARCA4 DEGRADERS” (Aurigene Oncology Limited, priority 2022, published 2025).

Tests used:
SMARCA2 = target: T1, SMARCA2 (Homo sapiens, UniProt P51531); assay: SMARCA2 degradation in VCaP cells by Western blot; format: cell-based; settings: at 100 nM, 16 hours
T1 construct: endogenous in cells; host or cells: VCaP (ATCC CRL-2876)
Procedure: (§1) Example-P2: Determination of SMARCA2 and SMARCA4 Degradation in VCaP Cells by Western Blot
(§2) VCaP (ATCC CRL-2876) was plated in 6 well plates using complete Dulbecco's Modified Eagle's Medium. On the third day, compounds of present invention were added to cells from 10 mM stocks made in DMSO (Sigma Cat no. D2650). Each compound was tested at 100 nM concentration with DMSO not exceeding final percentage of 0.3 in the cells. Cells were incubated with the compound for 16 hours followed by harvesting with 1×RIPA lysis buffer (Thermo Fischer, catalogue number #89900) containing protease inhibitor cocktail (Sigma catalogue number #P-8340). Equal amount of protein was loaded on SDS PAGE gel for electrophoresis. Western blot was carried out for detection of either SMARCA2 (Cell signalling technologies, catalogue number #11966) or SMARCA4 antibody (Cell signalling technologies, catalogue number #52251). Beta-Tubulin antibody (Cell signalling technologies, catalogue number #86298) was used as loading control. Percentage of SMARCA2 or SMARCA4 degradation was calculated by using formula: […]

SMARCA4 = target: T2, SMARCA4 (Homo sapiens, UniProt P51532); assay: SMARCA4 degradation in VCaP cells by Western blot; format: cell-based; settings: at 100 nM; for Percent SMARCA4 degradation at 0.1 µM: VCaP, 16 h; for Percent degradation SMARCA4: 16 hours
T2 construct: endogenous in cells; host or cells: VCaP (ATCC CRL-2876)
T2 sequence (P51532 whole entry): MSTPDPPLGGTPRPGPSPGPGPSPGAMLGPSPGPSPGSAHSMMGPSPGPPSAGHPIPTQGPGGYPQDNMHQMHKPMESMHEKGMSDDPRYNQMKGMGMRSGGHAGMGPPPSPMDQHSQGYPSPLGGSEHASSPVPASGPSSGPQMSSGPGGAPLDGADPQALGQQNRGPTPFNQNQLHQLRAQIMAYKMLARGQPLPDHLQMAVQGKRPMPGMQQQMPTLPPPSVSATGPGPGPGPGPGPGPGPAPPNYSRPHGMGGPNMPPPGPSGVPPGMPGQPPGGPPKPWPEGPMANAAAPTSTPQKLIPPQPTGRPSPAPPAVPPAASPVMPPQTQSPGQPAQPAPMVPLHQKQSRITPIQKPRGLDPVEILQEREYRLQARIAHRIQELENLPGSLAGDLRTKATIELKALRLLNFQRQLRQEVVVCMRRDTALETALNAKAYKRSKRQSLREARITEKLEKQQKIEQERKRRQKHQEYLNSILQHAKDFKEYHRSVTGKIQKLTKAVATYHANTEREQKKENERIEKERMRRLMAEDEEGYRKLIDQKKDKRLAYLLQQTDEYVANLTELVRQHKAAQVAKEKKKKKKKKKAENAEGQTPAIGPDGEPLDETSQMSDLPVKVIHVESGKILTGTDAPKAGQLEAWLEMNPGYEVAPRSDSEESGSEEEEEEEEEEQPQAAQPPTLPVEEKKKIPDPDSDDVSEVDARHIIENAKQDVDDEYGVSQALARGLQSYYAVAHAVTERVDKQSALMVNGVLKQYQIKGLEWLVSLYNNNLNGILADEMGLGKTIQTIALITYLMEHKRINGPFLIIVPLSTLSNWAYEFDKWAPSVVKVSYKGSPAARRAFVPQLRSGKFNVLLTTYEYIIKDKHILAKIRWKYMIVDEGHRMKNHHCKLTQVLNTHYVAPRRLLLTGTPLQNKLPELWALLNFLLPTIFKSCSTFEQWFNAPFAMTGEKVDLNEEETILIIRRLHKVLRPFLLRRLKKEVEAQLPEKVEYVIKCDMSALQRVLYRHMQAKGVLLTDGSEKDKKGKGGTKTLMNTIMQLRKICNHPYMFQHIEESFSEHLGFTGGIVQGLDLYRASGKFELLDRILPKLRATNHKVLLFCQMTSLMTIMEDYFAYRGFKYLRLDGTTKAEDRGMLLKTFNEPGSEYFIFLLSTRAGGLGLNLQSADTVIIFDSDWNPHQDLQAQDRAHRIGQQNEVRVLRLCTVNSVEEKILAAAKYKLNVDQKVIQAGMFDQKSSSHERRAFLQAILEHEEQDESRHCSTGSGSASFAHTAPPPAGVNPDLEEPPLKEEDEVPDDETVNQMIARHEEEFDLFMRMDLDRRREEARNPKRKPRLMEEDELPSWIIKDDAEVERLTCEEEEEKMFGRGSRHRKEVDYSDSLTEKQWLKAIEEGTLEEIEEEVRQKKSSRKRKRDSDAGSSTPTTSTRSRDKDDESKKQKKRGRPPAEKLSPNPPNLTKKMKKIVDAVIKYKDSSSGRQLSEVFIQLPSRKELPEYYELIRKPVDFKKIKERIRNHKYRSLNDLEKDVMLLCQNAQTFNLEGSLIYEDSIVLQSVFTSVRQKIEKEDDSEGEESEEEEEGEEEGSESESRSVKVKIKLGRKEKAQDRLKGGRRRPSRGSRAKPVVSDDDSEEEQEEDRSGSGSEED
Procedure: as §1, §2

T1 sequence (P51531 whole entry): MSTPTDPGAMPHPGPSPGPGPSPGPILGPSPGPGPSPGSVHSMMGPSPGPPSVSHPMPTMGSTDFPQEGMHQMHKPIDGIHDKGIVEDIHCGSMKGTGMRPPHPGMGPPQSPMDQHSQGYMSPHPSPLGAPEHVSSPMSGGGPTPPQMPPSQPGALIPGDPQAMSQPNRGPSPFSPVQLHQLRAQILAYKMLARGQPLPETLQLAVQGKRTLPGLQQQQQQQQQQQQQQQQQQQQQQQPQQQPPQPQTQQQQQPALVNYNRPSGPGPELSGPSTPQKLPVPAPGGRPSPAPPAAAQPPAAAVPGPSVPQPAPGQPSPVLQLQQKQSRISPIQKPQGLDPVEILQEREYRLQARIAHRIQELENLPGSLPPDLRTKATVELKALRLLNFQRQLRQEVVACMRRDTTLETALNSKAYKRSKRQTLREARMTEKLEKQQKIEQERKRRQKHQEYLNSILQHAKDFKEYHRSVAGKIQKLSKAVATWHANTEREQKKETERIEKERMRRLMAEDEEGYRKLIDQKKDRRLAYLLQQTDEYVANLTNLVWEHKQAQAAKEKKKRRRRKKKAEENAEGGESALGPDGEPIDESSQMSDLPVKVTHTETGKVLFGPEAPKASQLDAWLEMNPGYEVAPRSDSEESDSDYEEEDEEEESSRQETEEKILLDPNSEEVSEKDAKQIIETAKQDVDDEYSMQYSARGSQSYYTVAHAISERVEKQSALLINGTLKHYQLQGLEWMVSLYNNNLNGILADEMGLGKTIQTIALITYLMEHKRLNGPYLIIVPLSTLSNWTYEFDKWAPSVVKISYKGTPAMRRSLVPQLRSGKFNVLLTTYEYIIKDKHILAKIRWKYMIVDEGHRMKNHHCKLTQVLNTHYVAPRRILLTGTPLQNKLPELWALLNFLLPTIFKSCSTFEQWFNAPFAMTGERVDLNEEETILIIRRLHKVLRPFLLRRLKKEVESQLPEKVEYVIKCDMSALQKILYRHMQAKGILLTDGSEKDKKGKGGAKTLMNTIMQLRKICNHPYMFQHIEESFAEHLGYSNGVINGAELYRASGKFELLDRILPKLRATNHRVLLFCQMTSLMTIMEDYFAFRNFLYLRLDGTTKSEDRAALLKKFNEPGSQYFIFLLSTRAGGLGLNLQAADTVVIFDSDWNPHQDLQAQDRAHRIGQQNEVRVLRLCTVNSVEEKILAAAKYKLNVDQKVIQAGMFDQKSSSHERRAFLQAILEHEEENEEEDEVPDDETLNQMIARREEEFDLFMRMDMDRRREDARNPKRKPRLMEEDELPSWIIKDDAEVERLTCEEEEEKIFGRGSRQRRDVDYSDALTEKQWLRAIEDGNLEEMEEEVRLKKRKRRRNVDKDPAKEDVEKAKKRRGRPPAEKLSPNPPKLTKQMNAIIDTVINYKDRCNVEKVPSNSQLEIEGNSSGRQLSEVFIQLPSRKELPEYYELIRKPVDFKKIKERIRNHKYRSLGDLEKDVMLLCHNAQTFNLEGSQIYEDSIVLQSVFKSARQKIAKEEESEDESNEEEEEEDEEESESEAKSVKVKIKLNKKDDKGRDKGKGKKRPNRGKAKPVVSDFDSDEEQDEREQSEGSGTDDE

| SMILES | Percent degradation SMARCA2 (SMARCA2) [%] | Percent SMARCA4 degradation at 0.1 µM (SMARCA4) [%] | Percent degradation SMARCA4 (SMARCA4) [%] |
| --- | --- | --- | --- |
| Cc1ncsc1-c1ccc([C@H](C)NC(=O)[C@@H]2C[C@@H](O)CN2C(=O)[C@H](c2cc(-c3ccc(-c4cc(-c5ccccc5O)nnc4N)cc3)no2)C(C)C)cc1 [Compound 5, (2S,4R)-1-((S)-2-(3-(4-(3-amino-6-(2-hydroxyphenyl)pyridazin-4-yl)phenyl)isoxazol-5-yl)-3-methylbutanoyl)-4-hydroxy-N—((S)-1-(4-(4-methylthiazol-5-yl)phenyl)ethyl)pyrrolidine-2-carboxamide] | 57 | 62 | – |
| Cc1ncsc1-c1ccc([C@H](C)NC(=O)[C@@H]2C[C@@H](O)CN2C(=O)[C@@H](NC(=O)CC#Cc2ccc(-c3cc(Cl)nnc3N)cc2)C(C)(C)C)cc1 [Compound 22, (2S,4R)-1-((S)-2-(4-(4-(3-amino-6-chloropyridazin-4-yl)phenyl)but-3-ynamido)-3,3-dimethylbutanoyl)-4-hydroxy-N-((S)-1-(4-(4-methylthiazol-5-yl)phenyl)ethyl)pyrrolidine-2-carboxamide] | 2 | 7 | – |
| Cc1ncsc1-c1ccc([C@H](C)NC(=O)[C@@H]2C[C@@H](O)CN2C(=O)[C@@H](NC(=O)CN2CCC(Nc3ccc(-c4cc(-c5ccccc5O)nnc4N)cc3)CC2)C(C)(C)C)cc1 [Compound 54, (2S,4R)-1-((S)-2-(2-(4-((4-(3-amino-6-(2-hydroxyphenyl)pyridazin-4-yl)phenyl)amino)piperidin-1-yl)acetamido)-3,3-dimethylbutanoyl)-4-hydroxy-N—((S)-1-(4-(4-methylthiazol-5-yl)phenyl)ethyl)pyrrolidine-2-carboxamide] | 99 | 97 | – |
| Cc1ncsc1-c1ccc([C@H](C)NC(=O)[C@@H]2C[C@@H](O)CN2C(=O)[C@@H](NC(=O)CCN2CCN(c3ccc(-c4cc(-c5ccccc5O)nnc4N)cc3)CC2)C(C)(C)C)cc1 [Compound 18, (2S,4R)-1-((S)-2-(3-(4-(4-(3-amino-6-(2-hydroxyphenyl)pyridazin-4-yl)phenyl)piperazin-1-yl)propanamido)-3,3-dimethylbutanoyl)-4-hydroxy-N—((S)-1-(4-(4-methylthiazol-5-yl)phenyl)ethyl)pyrrolidine-2-carboxamide] | 98 | 93 | – |
| Cc1ncsc1-c1ccc([C@H](C)NC(=O)[C@@H]2C[C@@H](O)CN2C(=O)[C@@H](NC(=O)C2CCN(c3ccc(-c4cc(-c5ccccc5O)nnc4N)cc3)CC2)C(C)(C)C)cc1 [Compound 47, 1-(4-(3-amino-6-(2-hydroxyphenyl)pyridazin-4-yl)phenyl)-N-((S)-1-((2S,4R)-4-hydroxy-2-(((S)-1-(4-(4-methylthiazol-5-yl)phenyl)ethyl)carbamoyl)pyrrolidin-1-yl)-3,3-dimethyl-1-oxobutan-2-yl)piperidine-4-carboxamide] | 99 | 95 | – |
| Cc1ncsc1-c1ccc([C@H](C)NC(=O)[C@@H]2C[C@@H](O)CN2C(=O)[C@@H](NC(=O)CN2CCC(c3cccc(-c4cc(-c5ccccc5O)nnc4N)c3)CC2)C(C)(C)C)cc1 [Compound 46, (2S,4R)-1-((S)-2-(2-(4-(3-(3-amino-6-(2-hydroxyphenyl)pyridazin-4-yl)phenyl)piperidin-1-yl)acetamido)-3,3-dimethylbutanoyl)-4-hydroxy-N-((S)-1-(4-(4-methylthiazol-5-yl)phenyl)ethyl)pyrrolidine-2-carboxamide] | 98 | 96 | – |
| Cc1ncsc1-c1ccc([C@H](C)NC(=O)[C@@H]2C[C@@H](O)CN2C(=O)[C@@H](NC(=O)CCC#Cc2ccc(-c3cc(-c4ccccc4O)nnc3N)cc2)C(C)(C)C)cc1 [Compound 20, (2S,4R)-1-((S)-2-(5-(4-(3-amino-6-(2-hydroxyphenyl)pyridazin-4-yl)phenyl)pent-4-ynamido)-3,3-dimethylbutanoyl)-4-hydroxy-N-((S)-1-(4-(4-methylthiazol-5-yl)phenyl)ethyl)pyrrolidine-2-carboxamide] | 98 | 97 | – |
| Cc1ncsc1-c1ccc([C@H](C)NC(=O)[C@@H]2C[C@@H](O)CN2C(=O)[C@@H](NC(=O)CN2CCN(c3ccc(-c4cc(-c5ccccc5F)nnc4N)cc3)CC2)C(C)(C)C)cc1 [Compound 27, (2S,4R)-1-((S)-2-(2-(4-(4-(3-amino-6-(2-fluorophenyl)pyridazin-4-yl)phenyl)piperazin-1-yl)acetamido)-3,3-dimethylbutanoyl)-4-hydroxy-N—((S)-1-(4-(4-methylthiazol-5-yl)phenyl)ethyl)pyrrolidine-2-carboxamide] | 59 | 47 | – |
| Cc1ncsc1-c1ccc([C@H](C)NC(=O)[C@@H]2C[C@@H](O)CN2C(=O)[C@@H](NC(=O)CN2CCC(c3ccc(-c4cc(-c5ccccc5O)nnc4N)cc3)CC2C)C(C)(C)C)cc1 (single isomer, unassigned) [Compound 37] | 100 | – | 97 |
| Cc1ncsc1-c1ccc([C@H](C)NC(=O)[C@@H]2C[C@@H](O)CN2C(=O)C(c2cc(-c3ccc(-c4cc(-c5ccccc5C(F)F)nnc4N)cc3)no2)C(C)C)cc1 (stereo partly drawn) [Compound 8, (2S,4R)-1-(2-(3-(4-(3-amino-6-(2-(difluoromethyl)phenyl)pyridazin-4-yl)phenyl)isoxazol-5-yl)-3-methylbutanoyl)-4-hydroxy-N-((S)-1-(4-(4-methylthiazol-5-yl)phenyl)ethyl)pyrrolidine-2-carboxamide] | 0 | 18 | – |
| Cc1ncsc1-c1ccc([C@H](C)NC(=O)[C@@H]2C[C@@H](O)CN2C(=O)[C@@H](NC(=O)C2CCC(c3ccc(-c4cc(-c5ccccc5O)nnc4N)cc3)CC2)C(C)(C)C)cc1 (single isomer, unassigned) [Compound 41] | 92 | – | 52 |
| Cc1ncsc1-c1ccc([C@H](C)NC(=O)[C@@H]2C[C@@H](O)CN2C(=O)[C@@H](NC(=O)Cn2cc(-c3ccc(-c4cc(-c5ccccc5O)nnc4N)cc3)cn2)C(C)(C)C)cc1 [Compound 49, (2S,4R)-1-((S)-2-(2-(4-(4-(3-amino-6-(2-hydroxyphenyl)pyridazin-4-yl)phenyl)-1H-pyrazol-1-yl)acetamido)-3,3-dimethylbutanoyl)-4-hydroxy-N-((S)-1-(4-(4-methylthiazol-5-yl)phenyl)ethyl)pyrrolidine-2-carboxamide] | 66 | 0 | – |
| Cc1ncsc1-c1ccc([C@H](C)NC(=O)[C@@H]2C[C@@H](O)CN2C(=O)[C@@H](NC(=O)CN2CCC(N(C)c3ccc(-c4cc(-c5ccccc5O)nnc4N)cc3)CC2)C(C)(C)C)cc1 [Compound 55, (2S,4R)-1-((S)-2-(2-(4-((4-(3-amino-6-(2-hydroxyphenyl)pyridazin-4-yl)phenyl)(methyl)amino)piperidin-1-yl)acetamido)-3,3-dimethylbutanoyl)-4-hydroxy-N—((S)-1-(4-(4-methylthiazol-5-yl)phenyl)ethyl)pyrrolidine-2-carboxamide] | 99 | 71 | – |
| Cc1ncsc1-c1ccc([C@H](C)NC(=O)[C@@H]2C[C@@H](O)CN2C(=O)[C@@H](NC(=O)CN2CCN(c3ccc(-c4cc(Cl)nnc4N)cc3)CC2)C(C)(C)C)cc1 [Compound 13, (2S,4R)-1-((S)-2-(2-(4-(4-(3-amino-6-chloropyridazin-4-yl)phenyl)piperazin-1-yl)acetamido)-3,3-dimethylbutanoyl)-4-hydroxy-N—((S)-1-(4-(4-methylthiazol-5-yl)phenyl)ethyl)pyrrolidine-2-carboxamide] | 27 | 38 | – |
| Cc1ncsc1-c1ccc([C@H](C)NC(=O)[C@@H]2C[C@@H](O)CN2C(=O)[C@@H](NC(=O)C(C)N2CCC(c3ccc(-c4cc(-c5ccccc5O)nnc4N)cc3)CC2)C(C)(C)C)cc1 (single isomer, unassigned) [Compound 33] | 42 | 0 | – |
| Cc1ncsc1-c1ccc([C@H](C)NC(=O)[C@@H]2C[C@@H](O)CN2C(=O)C(c2cc(-c3ccc(-c4cc(-c5ccccc5O)nnc4N)cc3)no2)C(C)C)cc1 (stereo partly drawn) [Compound 4, (2S,4R)-1-(2-(3-(4-(3-amino-6-(2-hydroxyphenyl)pyridazin-4-yl)phenyl)isoxazol-5-yl)-3-methylbutanoyl)-4-hydroxy-N—((S)-1-(4-(4-methylthiazol-5-yl)phenyl)ethyl)pyrrolidine-2-carboxamide] | 98 | 11 | – |
| COc1ncccc1-c1cc(-c2ccc(N3CCN(CC(=O)N[C@H](C(=O)N4C[C@H](O)C[C@H]4C(=O)N[C@@H](C)c4ccc(-c5scnc5C)cc4)C(C)(C)C)CC3)cc2)c(N)nn1 [Compound 15, (2S,4R)-1-((S)-2-(2-(4-(4-(3-amino-6-(2-methoxypyridin-3-yl)pyridazin-4-yl)phenyl)piperazin-1-yl)acetamido)-3,3-dimethylbutanoyl)-4-hydroxy-N—((S)-1-(4-(4-methylthiazol-5-yl)phenyl)ethyl)pyrrolidine-2-carboxamide] | 8 | 16 | – |
